Non-standard residues stand in square brackets, D forms with d. Residues, ends and D or L forms follow the SMILES beside them. GABA = NCCCC(=O)O

Assay type in all cases: functional, organism-based
One assay concerns Xanthomonas campestris. Nature of the assay: Antibacterial activity against Xanthomonas campestris.
Assay [1] deals with Clavibacter michiganensis. Nature of the assay: Antibacterial activity against Clavibacter michiganensis.
The test system of assay [2] is Plectosphaerella cucumerina. The assay is described as follows: Antifungal activity against Plectosphaerella cucumerina.
The next assay concerns Botrytis cinerea. The assay is described as follows: Antifungal activity against Botrytis cinerea.
The next assay concerns Sinorhizobium meliloti. Nature of the assay: Antibacterial activity against Rhizobium meliloti.

Turning to `CC[C@H](C)[C@H](NC(=O)[C@H](CCC(=O)O)NC(=O)[C@@H](N)CCCN=C(N)N)C(=O)NCCCC(=O)N[C@@H](C)C(=O)N[C@@H](CCCCN)C(=O)N[C@@H](CCCCN)C(=O)NCCCC(=O)N[C@@H](CCCN=C(N)N)C(=O)O` (H-REI[GABA]AKK[GABA]R-OH), the EC50 is over 50 µM with Xanthomonas campestris; 5.13 µM in assay [1]; 15.7 µM in assay [2]; 4.1 µM in the assay on Botrytis cinerea; over 50 µM in the assay on Sinorhizobium meliloti.
As to `CC(C)C[C@H](NC(=O)[C@H](CCCN=C(N)N)NC(=O)CCCNC(=O)[C@@H](NC(=O)[C@H](CC(N)=O)NC(=O)[C@H](Cc1ccc(O)cc1)NC(=O)CCCNC(=O)[C@H](CC(N)=O)NC(=O)[C@H](CCCN=C(N)N)NC(=O)[C@H](C)NC(=O)[C@H](Cc1c[nH]c2ccccc12)NC(=O)[C@@H](N)[C@@H](C)O)C(C)C)C(=O)N1CCC[C@H]1C(=O)O` (H-TWARN[GABA]YNV[GABA]RLP-OH), the EC50 was over 50 µM with Xanthomonas campestris; 3.27 µM in assay [1]; 3.97 µM in assay [2]; 1.6 µM in the assay on Botrytis cinerea; over 50 µM with Sinorhizobium meliloti.
As for “H-THRTRPALAARGASNCYSTYRASNVALCYSARGLEPRARGGLIIECYSALALYSLYSCYS-OH (cysteines drawn unpaired)”, the 50% effective concentration (EC50) in the assay on Xanthomonas campestris was 1.03 µM; in assay [1], 0.03 µM; in assay [2] it was 0.16 µM; with Botrytis cinerea, 0.08 µM; with Sinorhizobium meliloti it was 2.07 µM.

Source of the values: ChEMBL document CHEMBL1148607, “A minimalist design approach to antimicrobial agents based on a thionin template” (J Med Chem, 2006).
